# Results reported in BindingDB's records for patent US20250059174 (Enanta Pharmaceuticals, 2025).
# Molecular target: Mast/stem cell growth factor receptor Kit (Homo sapiens, UniProt P10721)
# Assay: c-KIT Kinase Assay
# Protocol: Kinase Reaction: The kinase assay was based on the recommended protocol by c-KIT Kinase Enzyme System from Promega. Recombinant human c-KIT kinase in 3 μL of assay buffer (40 mM Tris pH 7.5, 20 mM MgCl2, 0.1 mg/mL BSA and 50 μM DTT) was added to the test or high control wells and 3 μL of assay buffer was added to the low control wells. The microplate was centrifuged at 800 rotations per minute (rpm) for 60 s and incubated at room temperature (RT) for 30 min. Next, 2 μL of buffered ATP and polyEY substrate solution was added to all wells. The microplate was centrifuged at 800 rpm for 60 s and incubated at RT for 2 h. […] ADP detection with ADP-Glo™ Kinase Assay: After the kinase reaction incubation, 5 μL of ADP-Glo™ reagent was added to all wells. The microplate was centrifuged at 800 rpm for 60 s and incubated at RT for 40 min. Ten microliter (10 μL) of Kinase Detection Reagent (Luciferin-Luciferase system) was then added to all wells. The microplate was centrifuged at 800 rpm for 60 s and incubated at RT for 60 min. Kinase activity was measured as increase in luminescence at RT in an Envision plate reader equipped with 560 nm filters and operating in endpoint mode.
# Mast/stem cell growth factor receptor Kit, sequence (P10721 whole entry): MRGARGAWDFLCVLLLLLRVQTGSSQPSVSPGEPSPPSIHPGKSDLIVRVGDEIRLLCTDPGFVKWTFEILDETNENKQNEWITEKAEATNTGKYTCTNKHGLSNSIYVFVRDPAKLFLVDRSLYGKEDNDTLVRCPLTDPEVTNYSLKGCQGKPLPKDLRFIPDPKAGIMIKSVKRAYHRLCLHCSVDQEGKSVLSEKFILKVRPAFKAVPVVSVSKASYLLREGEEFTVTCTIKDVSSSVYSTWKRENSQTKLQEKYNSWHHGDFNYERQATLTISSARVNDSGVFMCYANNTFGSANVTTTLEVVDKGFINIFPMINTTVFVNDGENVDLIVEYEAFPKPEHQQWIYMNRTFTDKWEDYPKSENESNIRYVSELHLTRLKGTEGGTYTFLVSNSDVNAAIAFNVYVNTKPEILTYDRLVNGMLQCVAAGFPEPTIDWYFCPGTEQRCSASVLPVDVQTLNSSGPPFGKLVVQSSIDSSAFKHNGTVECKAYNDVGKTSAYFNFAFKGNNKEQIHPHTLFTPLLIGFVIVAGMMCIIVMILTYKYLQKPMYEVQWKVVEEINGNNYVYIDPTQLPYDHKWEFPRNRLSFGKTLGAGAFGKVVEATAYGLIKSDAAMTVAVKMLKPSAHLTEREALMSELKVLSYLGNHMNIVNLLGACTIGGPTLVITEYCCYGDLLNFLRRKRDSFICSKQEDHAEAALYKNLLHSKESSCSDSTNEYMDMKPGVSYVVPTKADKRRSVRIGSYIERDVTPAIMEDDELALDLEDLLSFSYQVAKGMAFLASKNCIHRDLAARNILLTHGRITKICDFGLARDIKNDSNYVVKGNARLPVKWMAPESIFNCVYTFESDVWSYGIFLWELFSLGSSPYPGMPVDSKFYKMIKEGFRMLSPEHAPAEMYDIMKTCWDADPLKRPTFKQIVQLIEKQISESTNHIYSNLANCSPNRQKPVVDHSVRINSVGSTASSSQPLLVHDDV
row,IC50 [nM],SMILES
1,< 100,"Cc1ccc(-c2noc(C3C[C@@H]3F)n2)cc1NC(=O)c1cnn2ccc(-c3cnn(C(F)F)c3)cc12 (stereo partly drawn) [US20250059174, Example 2a]"
2,> 1000,"Cc1ccc(-c2noc([C@H]3C[C@@H]3F)n2)cc1NC(=O)c1cnc(N2CC(C(=O)O)C2)s1 [US20250059174, Example 98-4]"
3,< 100,"Cc1ccc(-c2noc(C3C[C@@H]3F)n2)cc1NC(=O)c1cnn2ccc(N3C[C@H](CS(C)(=O)=O)[C@@H]3C)cc12 (stereo partly drawn) [US20250059174, Example 172]"
